In patent publication US20050107353A1, “Methods of treating lower urinary tract disorders using losigamone” (Dynogen Pharmaceuticals, Inc., priority 2003, published 2005):
Entries after “also recorded” stand apart in the source; their conditions may differ.

Tests used:
[1] = test system: activity dependent sodium currents in bladder DRG neurons; assay: Use-dependent effect on sodium currents in bladder DRG neurons, slow versus fast stimulation; assay type: cell-based, rat; conditions: 100 μM, steps from −50 to 0 mV, three neurons
Experimental: Labeling of bladder afferent neurons: Adult female Sprague-Dawley rats (150-300 g) were deeply anesthetized with pentobarbital anesthesia and placed on isoflurane maintenance anesthesia. A ventral midline incision was made through the abdominal skin and musculature, exposing the urinary bladder. Five injections of the fluorescent dye Di-I (5 μl each of 25 mg/ml Di-I in DMSO) or Fast Blue (4% w/v) were made into the bladder smooth muscle wall to label primary afferent fibers innervating the bladder. The area was rinsed with sterile saline to eliminate nonspecific spread of dye, and the incision was closed. Rats recovered for 5-12 days to allow for transport of fluorescent dye from distal terminals to the cell somata of dorsal root ganglion (DRG) neurons. Labeled neurons were identified in vitro using fluorescence optics. […]
Sodium currents were recorded from DRG neurons using standard electrophysiologic protocols. […] Currents were recorded using a patch-clamp amplifier and digitized at 3-10 kHz for acquisition. Neuronal input resistance and membrane capacitance were determined from the amplitude and kinetics of the current response to a voltage pulse from a holding potential of −50 mV. […] For all cell types, baseline responses were recorded for a minimum of 10 min to ensure that the kinetics of the response was stable. […]

[2] = test system: acetic acid-induced reduction of bladder capacity; assay: Dilute acetic acid model: bladder capacity by filling cystometry during continuous intravesical acetic acid irritation; assay type: in vivo, rat; conditions: intraduodenal; for effect on bladder capacity (reversal of acetic acid-induced reduction): increasing doses, rats during continuous irritation
Description: The objective of the current study was to determine the effect of TTX-R sodium channel modulators or use dependent sodium channel modulators on the ability to reverse the reduction in bladder capacity seen following continuous infusion of dilute acetic acid, a commonly used model of lower urinary tract disorders including overactive bladder.
Animal Preparation: Female rats (250-275 g BW) were anesthetized with urethane (1.2 g/kg) and a saline-filled catheter (PE-50) was inserted into either the jugular vein for intravenous (i.v.; saline vehicle) or the proximal duodenum for intraduodenal (i.d.; distilled water or 10% Tween 80 in saline as vehicle) drug administration. Via a midline lower abdominal incision, a flared-tipped PE 50 catheter was inserted into the bladder dome for bladder filling and pressure recording and secured by ligation. The abdominal cavity was moistened with saline and closed by covering with a thin plastic sheet in order to maintain access to the bladder for emptying purposes. Fine silver or stainless steel wire electrodes were inserted into the external urethral sphincter (EUS) percutaneously for electromyography (EMG).
Experimental Design: Saline was continuously infused at a rate of 0.055 ml/min via the bladder filling catheter for ≧60 minutes to obtain a baseline of lower urinary tract activity (continuous cystometry; CMG). Following the control period, a 0.25% acetic acid solution in saline was infused into the bladder at the same flow rate to induce bladder irritation. Following 30 minutes of AA infusion, 3 vehicle injections were made at 20 minute intervals to determine vehicle effects, if any. Subsequently, increasing doses (2-5) of Na^+ channel blocking compound were administered intravenously or intraduodenaly at half-log order increments at 30 or 60 minute intervals in order to construct a cumulative dose-response relationship. At the end of the control saline cystometry period, the third vehicle, and 20-50 minutes following each subsequent treatment, the infusion pump was stopped, the bladder was emptied by fluid withdrawal via the infusion catheter and a single filling cystometrogram was performed at the same flow rate in order to determine changes in bladder capacity caused by the irritation protocol and subsequent intravenous or intraduodenal drug administration.
Data were analyzed by non-parametric ANOVA for repeated measures (Friedman Test) with Dunn's Multiple Comparison test. All comparisons were made from the last vehicle measurement (AA/Veh 3) or the lowest dose of drug. P<0.050 was considered significant.

[3] = biological target: T1, TTX-R sodium currents in bladder afferent neurons (Rattus norvegicus, UniProt Q62968); assay: Bladder sensory neuron sodium channel current model: whole cell patch-clamp of TTX-R sodium currents; assay type: cell-based; conditions: 30 μM bath application, 7 minute, holding potential −70 mV, pulse to +10 mV
T1 construct: Whole cell patch-clamp recordings were obtained from dye-labeled DRG neurons; endogenous in cells; host or cells: primary dissociated L6/S1 dorsal root ganglion neurons of Sprague-Dawley rats, dye-labelled bladder afferents
Experimental: Labeling of bladder afferent neurons: Adult female Sprague-Dawley rats (150-300 g) were deeply anesthetized with pentobarbital anesthesia and placed on isoflurane maintenance anesthesia. A ventral midline incision was made through the abdominal skin and musculature, exposing the urinary bladder. Five injections of the fluorescent dye Di-I (5 μl each of 25 mg/ml Di-I in DMSO) or Fast Blue (4% w/v) were made into the bladder smooth muscle wall to label primary afferent fibers innervating the bladder. The area was rinsed with sterile saline to eliminate nonspecific spread of dye, and the incision was closed. Rats recovered for 5-12 days to allow for transport of fluorescent dye from distal terminals to the cell somata of dorsal root ganglion (DRG) neurons. Labeled neurons were identified in vitro using fluorescence optics.
Neuronal cultures: Di-I injected rats were euthanized with pentobarbital anesthesia. Lumbar (L6) and sacral (S1) DRG were dissected from the vertebral column and placed in Dulbecco's modified Eagles medium (DMEM) containing 0.3% collagenase B for 60 min at 37° C. The cell solution was exchanged for a 0.25% trypsin in calcium/magnesium-free Dulbecco's phosphate-buffered saline solution, and further digested for 30 min at 37° C. Following a wash in fresh DMEM, ganglia were dissociated by a series of triturations using fire-polished Pasteur pipettes. DRG cells were plated on polylysine-treated glass coverslips. Cells were plated at a density of 0.5 DRG per coverslip in 1 ml DMEM supplemented with 10% FBS, NGF, and 100 U/ml penicillin/streptomycin. All experimental procedures involving rats were conducted under a protocol approved by an Institutional Animal Care and Use Committee. Small variations in the concentrations of reagents, incubation times, etc. may occur and are expected to give similar results.
In most experiments, neurons were incubated in culture medium containing the FITC-labeled lectin BSI-B4 (IB4, […]) at 37° C. for 5 min before recording. The coverslip was washed with extracellular recording solution for 1 min before being placed in a recording chamber mounted on the stage of an inverted microscope equipped with fluorescence optics.
Electrophysiology: Electrophysiologic evaluation of neurons occurred within 4-48 h of plating. Whole cell patch-clamp recordings were obtained from dye-labeled DRG neurons. Recordings were obtained in an extracellular recording solution (pH 7.4, 295-320 mosM) consisting of (in mM) 140 NaCl, 3 KCl, 1 CaCl2, 1 MgCl2, 0.1 CdCl2, 10 HEPES, and 10 glucose. Patch-clamp electrodes were pulled from borosilicate glass and fire polished to 2-6 MOhm tip resistance. The internal pipette recording solution (pH 7.3, 290-300 mosM) consisted of (in mM) 140 CsCl, 10 NaCl, 1 EGTA, and 10 HEPES. Tetrodotoxin (TTX, 0.3 uM) was included in the extracellular solution to block TTX-sensitive sodium currents. Variations in the concentrations and types of reagents used for solutions may occur and are expected to give similar results.
Sodium currents were recorded from DRG neurons using standard electrophysiologic protocols. Neurons were typically voltage-clamped at −50 mV. Currents were recorded using a patch-clamp amplifier and digitized at 3-10 kHz for acquisition. Neuronal input resistance and membrane capacitance were determined from the amplitude and kinetics of the current response to a voltage pulse from a holding potential of −50 mV. Series resistance was compensated 75-95% for all recordings. Leak currents were cancelled online using a standard P/4 protocol. Depolarizing steps from −90, −70, or −50 mV to 0 mV were delivered every 5 or 30 sec during drug application to determine the effects of drugs on sodium currents. For all cell types, baseline responses were recorded for a minimum of 10 min to ensure that the kinetics of the response was stable. A wash out or recovery period usually followed the drug application period. […]

T1 sequence (Q62968 whole entry): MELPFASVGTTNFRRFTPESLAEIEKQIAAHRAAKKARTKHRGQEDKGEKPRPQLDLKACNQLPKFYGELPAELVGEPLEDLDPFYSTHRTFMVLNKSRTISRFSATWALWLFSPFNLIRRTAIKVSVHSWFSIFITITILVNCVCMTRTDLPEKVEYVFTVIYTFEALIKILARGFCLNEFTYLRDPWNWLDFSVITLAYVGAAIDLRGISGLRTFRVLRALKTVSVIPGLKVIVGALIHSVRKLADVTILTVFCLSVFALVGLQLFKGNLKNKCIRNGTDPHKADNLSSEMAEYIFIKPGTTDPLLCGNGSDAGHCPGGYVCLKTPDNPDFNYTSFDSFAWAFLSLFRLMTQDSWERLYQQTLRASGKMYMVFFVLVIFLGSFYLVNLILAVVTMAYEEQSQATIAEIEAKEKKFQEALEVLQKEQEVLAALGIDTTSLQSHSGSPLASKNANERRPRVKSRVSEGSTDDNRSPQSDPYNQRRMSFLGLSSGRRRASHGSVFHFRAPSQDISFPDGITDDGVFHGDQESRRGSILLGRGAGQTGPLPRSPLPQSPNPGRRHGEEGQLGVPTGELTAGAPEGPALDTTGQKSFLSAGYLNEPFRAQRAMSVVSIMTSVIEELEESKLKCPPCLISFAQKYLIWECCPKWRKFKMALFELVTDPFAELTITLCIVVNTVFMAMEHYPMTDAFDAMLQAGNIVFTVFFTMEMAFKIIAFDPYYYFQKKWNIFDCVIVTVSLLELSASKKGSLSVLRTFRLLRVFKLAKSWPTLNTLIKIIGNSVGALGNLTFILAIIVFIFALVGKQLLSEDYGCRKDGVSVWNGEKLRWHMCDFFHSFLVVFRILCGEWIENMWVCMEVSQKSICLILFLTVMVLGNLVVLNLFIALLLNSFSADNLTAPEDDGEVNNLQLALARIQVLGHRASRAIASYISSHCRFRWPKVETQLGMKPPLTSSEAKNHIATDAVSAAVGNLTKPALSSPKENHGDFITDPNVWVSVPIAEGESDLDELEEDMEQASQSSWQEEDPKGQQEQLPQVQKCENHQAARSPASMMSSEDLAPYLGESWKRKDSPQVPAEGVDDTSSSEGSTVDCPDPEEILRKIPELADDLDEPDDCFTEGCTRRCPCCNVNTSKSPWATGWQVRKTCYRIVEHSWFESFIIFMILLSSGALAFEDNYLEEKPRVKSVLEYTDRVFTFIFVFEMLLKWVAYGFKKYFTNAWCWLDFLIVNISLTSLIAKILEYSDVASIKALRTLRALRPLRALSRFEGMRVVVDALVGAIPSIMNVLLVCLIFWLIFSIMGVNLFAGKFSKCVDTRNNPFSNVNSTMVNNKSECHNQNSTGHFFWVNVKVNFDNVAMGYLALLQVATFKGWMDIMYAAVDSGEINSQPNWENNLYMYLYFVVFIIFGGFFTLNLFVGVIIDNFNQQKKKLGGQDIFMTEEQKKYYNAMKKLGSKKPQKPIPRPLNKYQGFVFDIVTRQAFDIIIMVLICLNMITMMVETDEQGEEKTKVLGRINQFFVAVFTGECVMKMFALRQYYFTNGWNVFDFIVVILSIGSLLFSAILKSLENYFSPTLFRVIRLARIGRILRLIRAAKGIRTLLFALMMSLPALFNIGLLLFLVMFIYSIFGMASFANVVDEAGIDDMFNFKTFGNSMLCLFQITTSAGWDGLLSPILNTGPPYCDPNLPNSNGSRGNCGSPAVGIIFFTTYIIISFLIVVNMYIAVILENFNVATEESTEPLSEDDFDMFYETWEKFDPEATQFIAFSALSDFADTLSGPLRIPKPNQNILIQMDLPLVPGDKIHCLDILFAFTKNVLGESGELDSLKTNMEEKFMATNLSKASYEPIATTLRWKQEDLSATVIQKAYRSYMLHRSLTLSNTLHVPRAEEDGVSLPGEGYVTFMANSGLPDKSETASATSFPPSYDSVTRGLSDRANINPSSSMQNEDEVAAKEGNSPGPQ

Structure (SMILES)	peak sodium current amplitude, fast (17 Hz) versus slow (0.2 Hz) stimulation [1]	post-test: reversal of bladder capacity reduction ([2]; 100 mg/kg dose, rats)	effect on bladder capacity (reversal of acetic acid-induced reduction) [2]	effect on bladder capacity (reversal of acetic acid-induced reduction) ([2]; listed as topiramate)	effect on inward TTX-R sodium current [3]
Nc1nnc(-c2cccc(Cl)c2Cl)c(N)n1 [Lamotrigine, 6-(2,3-Dichlorophenyl)-1,2,4-triazine-3,5-diamine]	decreased to a greater extent under fast stimulation conditions				
CC1(C)O[C@@H]2[C@@H](CO[C@@]3(COS(N)(=O)=O)OC(C)(C)O[C@@H]23)O1 [Topiramate, 2,3:4,5-Bis-O-(1-methylethylidene)-1-O-sulfamoyl-beta-D-fructopyranose]		statistically significant reversal of bladder capacity reduction	capable of partially reversing the reduction in bladder capacity caused by acetic acid in a dose-dependent fashion; also recorded: dose-dependent and statistically significant reversal	dose-dependent, statistically significant increases in bladder capacity	blocked the current
